Test results reported in US8580818B2, “Combination drug containing probucol and a tetrazolylalkoxy-dihydrocarbostyril derivative with superoxide supressant effects” (Otsuka Pharmaceutical Co., Ltd., priority 2005, dated 2013).

Legend:
[1] = test system: Otsuka Long-Evans Tokushima Fatty (OLETF) male rats; test: Urinary excretion of glucose and insulin resistance in OLETF rats on high-fat diet; format: in vivo; conditions: eleventh week; for urinary glucose, mean±SD: 0.3% Cilostazol and/or 0.5% Probucol in diet, control 186±171 mg/dl; for effect on plasma glucose: 0.3% Cilostazol or 0.5% Probucol in diet, control 162±16 mg/dl
Method: Otsuka Long-Evans Tokushima Fatty (OLETF) male rats (6 week olds) were divided randomly into the following four groups depending on the body weights by stratified randomized method (using SAS Software, R8.1): Immediately after the randomized grouping, high-fat diet (commercially available feed (CRF-1, manufactured by Oriental Yeast Industries Co., LTD.) supplemented with cholesterol (1.25%), sodium cholate (0.5%) and cacao butter (15%)) was administered to the mice in each group in order to promote the onset of renal disease. In the test-material administered groups, the high-fat diet combined with the test material was administered to each mouse immediately after grouping. In the eleventh week after initiation of feeding, the mice were bled from the tail vein without anesthetization, and the plasma glucose and insulin level in plasma were measured. Separately, the urine was taken, and the urinary glucose was measured. Glucose was measured by an enzymatic method using a commercially available kit for measuring glucose, and the insulin was measured by a commercially available ELISA kit. 1) In order to confirm the synergistic effects of the combination of Cilostazol and Probucol, two-way ANOVA was carried out between the control group and the Cilostazol-administered group as well as between the Probucol-administered group and two agents-administered group, and thereby the interaction was observed. 2) The effects in Cilostazol- and Probucol-administered group were compared with the effects in control group by Dunnett's test. Moreover, the effects in Cilostazol- and Probucol-administered group were compared with the effects in Cilostazol+Probucol-administered group by Dunnett's test. All tests were done by two-sided test with significant level of 5%, by means of SAS Software (SAS Institute Japan, R8.1). The data were shown by mean±SD (n).

[2] = test system: atherosclerotic lesion in low-density lipoprotein receptor-knockout mice; test: Atherosclerosis in low-density lipoprotein receptor-knockout mice fed high cholesterol; format: in vivo; conditions: LDLR-KO mice; for area of atherosclerotic lesion (ratio of Sudan IV stained area to whole aorta), mean±SD: high-fat diet 8 weeks, control 10.1±4.7%; for inhibition of atherosclerotic lesion (in words): Cilostazol 0.3%, Probucol 0.1 and 0.5%, alone or combined, FIG. 2 and FIG. 3
Method: Low-density lipoprotein receptor-knockout (LDLR-KO) mice (J. Clin. Invest. 1993; 92: 883-893) (male, 9 weeks old, which was prepared by and kept in Otsuka Pharmaceutical Co, Ltd.) were used. The animals were treated by grouping in the following six groups. Prior to start the experiment, the body weight of the animals and total cholesterol were measured, and based on both data, the animals were divided into six groups in random by stratified randomization method (SAS Software, R8.1). The doses of Probucol and Cilostazol were determined based on the reports (Horm. Metab. Res. 2001; 33: 472-479, and J. Pharmacol. Exp. Ther. 2005; 313: 502-509), respectively. In control group, mice were administered with a high-fat diet [i.e. a conventional feed (CRF-1, manufactured by Oriental Yeast Industries Co., LTD.) supplemented with cholesterol (1.25%), sodium cholate (0.5%) and cacao butter (15%)] and in the test material-administered group, the mice were administered with the high-fat diet combined with Cilostazol (0.3%) and/or Probucol (0.1% or 0.5%). The high-fat diet was administered to the LDLR-KO mice (since 9 weeks old) in order to induce atherosclerosis (in control group). In the test material-administration groups, the high-fat diet mixed with test material was administered to the mice (since 9 weeks old). The mice in both groups were dissected at eighth weeks after starting the administration of the diet. The atherosclerotic lesion was evaluated by picking up whole of the aorta under ether anesthesia, exposing the inner face of aorta and staining the fats with Sudan IV. The area of the atherosclerotic lesion (containing fats/lipids) in whole of the aorta was counted by image analysis of stained area and whole area of the aorta. 1) In order to confirm the synergistic effects of the combination of Cilostazol and Probucol, two-way ANOVA was carried out between the control group and the Cilostazol-administered group as well as between the Probucol-administered group and two agents-administered group, and thereby the interaction was observed. 2) The effects in Cilostazol- and Probucol-administered group were compared with the effects in control group by Dunnett's test. Moreover, the effects in Cilostazol- and Probucol-administered group were compared with the effects in Cilostazol+Probucol-administered group by Dunnett's test. All tests were done by two-sided test with significant level of 5%, by means of SAS Software (SAS Institute Japan, R8.1). The area of atherosclerotic lesion was calculated as the ratio (%) of the area stained by Sudan IV to the area of whole aorta. The mean values±standard deviation were 10.1±4.7% in Control group, 6.6±2.6% in Cilostazol-administered group, 6.2±2.6% in 0.1% Probucol-administered group, 4.7±1.2% in 0.5% Probucol-administered group, 3.8±1.2% in Cilostazol+0.1% Probucol-administered group, and 2.9±1.5% in Cilostazol+0.5% Probucol-administered group.

[3] = test system: focal cerebral ischemic injury in rats; test: Focal cerebral ischemic injury in rats (transient MCA occlusion, TTC-stained infarct); format: in vivo, Sprague-Dawley rats; conditions: 2-h MCA occlusion/22-h reperfusion, oral, two times at 5 min and 4 h, cilostazol 20 mg/kg, probucol 30 mg/kg, vs vehicle, FIG. 4
Method: Male Sprague-Dawley rats weighing 280-320 g were anesthetized with pentobarbital sodium (20 mg/kg, i.p.), and placed on a heating pad (Homeothermic Blanket System, Harvard Apparatus, South Natick, Mass.) to maintain a constant rectal temperature (37±0.5° C.). Systemic arterial blood pressure, arterial blood gas and pH were measured before, during ischemia and after 22-h reperfusion. Focal cerebral ischemia was induced by transient occlusion of the left middle cerebral artery (MCA) as previously described (Stroke 1989; 20:84-91). Surgical nylon suture thread (3-0 in size) with the round tip was advanced from the external carotid artery into the lumen of the internal carotid artery until blocking the flow of the MCA. Two hours after MCA occlusion, reperfusion was allowed by withdrawal of the suture thread until the tip cleared the internal carotid artery. […] The TTC-stained brain slices were photographed using CCD video camera and the size of an infarct was calculated with image analysis system (Image-Pro Plus, Media Cybernetics, Maryland) and expressed as the percentage of infarcted tissue in reference to the ipsilateral hemisphere. […] Data were expressed as mean±S.E.M. The comparison of the results of hemispheric infarct areas between groups is analyzed by repeated measures analysis of variance followed by Tukey's multiple comparison tests as a post hoc comparison. […]

SMILES | urinary glucose, mean±SD [1] [mg/dL] | effect on plasma glucose [1] | area of atherosclerotic lesion (ratio of Sudan IV stained area to whole aorta), mean±SD ([2]; 0.3% Cilostazol in diet) [%] | inhibition of atherosclerotic lesion (in words) [2] | hemispheric cerebral infarct area (in words) [3] | area of atherosclerotic lesion (ratio of Sudan IV stained area to whole aorta), mean±SD ([2]; 0.1% Probucol in diet) [%] | area of atherosclerotic lesion (ratio of Sudan IV stained area to whole aorta), mean±SD ([2]; 0.5% Probucol in diet) [%]
O=C1CCc2cc(OCCCCc3nnnn3C3CCCCC3)ccc2N1 [Cilostazol, 6-[4-(1-cyclohexyl-1H-tetrazol-5-yl)butoxy]-3,4-dihydrocarbostyril] | 11 ± 2 | neither Cilostazol nor Probucol showed any effect | 6.6±2.6 | inhibited the atherosclerotic lesion significantly | marginally reduced | – | –
CC(C)(Sc1cc(C(C)(C)C)c(O)c(C(C)(C)C)c1)Sc1cc(C(C)(C)C)c(O)c(C(C)(C)C)c1 [Probucol, 4,4′-isopropylidenedithiobis[2,6-di-tert-butylphenol]] | 11 ± 3 | neither Cilostazol nor Probucol showed any effect | – | inhibited the atherosclerotic lesion significantly | without effect | 6.2±2.6 | 4.7±1.2
